{"source": "patent US20190029987A1", "about": "“DIMETHYL FUMARATE (DMF) FOR PREVENTION OR TREATMENT OF GOUT, ACNE, DIABETES, VITILIGO AND/OR PYODERMA GANGRENOSUM” (UNIVERSITAT ZURICH, priority 2016, published 2019)", "key": {"[1]": {"test_system": "Nrf2", "assay": "Nigericin-induced Nrf2 degradation in THP-1 cells (Western blot)", "format": "cell-based, human", "conditions": "THP-1, nigericin 5 μM, 1 μM added after 1 h, harvested after 2.5 h, FIG. 4I", "from_the_text": "Next, the inventors investigated the activity of Nrf2 upon activation of the NLRP3 inflammasome, since inflammasome activation is ROS-dependent. […] This is surprising, since UVB irradiation is a strong inducer of ROS production and it can be anticipated that the cells would benefit from Nrf2 activation. UVB-induced secretion by HPKs requires expression of NLRP1 and NLRP3 [21]. Both nigericin and MSU crystals are considered as “true” NLRP3 activators, but HPKs cannot phagocytose MSU crystals. Therefore, the inventors treated HPKs with nigericin only and THP-1 cells with either of these NLRP3 activators. […] Therefore, NLRP3 inflammasome activation most likely induces Nrf2 protein degradation. […]\n(A-C) HPKs were irradiated with (A) UVB or treated with (B) nigericin (5 μM) and cells and supernatants were harvested at different time points as indicated. […] (C) Expression of Nrf2 and Nrf2 target genes was determined by qRT-PCR. […] Cells and supernatants were harvested at different time points as indicated and analysed for (D) expression and activation of the proteins as indicated by Western blot and (E) expression of Nrf2 and Nrf2 target genes by qRT-PCR. […] Cells were harvested after 1 h or 5 h, and lysates were analysed for the expression of the indicated proteins by Western blot. […] (G) Nrf2 expression related to the indicated background band was quantified from the Western blot. […]"}, "[2]": {"test_system": "Nrf2", "assay": "UVB-induced Nrf2 degradation in HPKs (Western blot)", "format": "cell-based, human", "conditions": "1 μM for 10 min, harvested after 1 h, FIG. 7D", "from_the_text": "Next, the inventors investigated the activity of Nrf2 upon activation of the NLRP3 inflammasome, since inflammasome activation is ROS-dependent. […] This is surprising, since UVB irradiation is a strong inducer of ROS production and it can be anticipated that the cells would benefit from Nrf2 activation. UVB-induced secretion by HPKs requires expression of NLRP1 and NLRP3 [21]. Both nigericin and MSU crystals are considered as “true” NLRP3 activators, but HPKs cannot phagocytose MSU crystals. Therefore, the inventors treated HPKs with nigericin only and THP-1 cells with either of these NLRP3 activators. […] Therefore, NLRP3 inflammasome activation most likely induces Nrf2 protein degradation. […] However, inflammasome activation-induced Nrf2 degradation was blocked upon ablation of ASC or NLRP3 expression (FIG. 4G) and upon treatment of cells with the ROS blocker PDTC or the Ca2+ chelator BAPTA-AM (Supplementary FIG. 2D). […] However, inflammasome function was not impaired, as reflected by normal processing of pro-IL-18 (FIG. 4H). Although Keap1 expression is partially dispensable for Nrf2 degradation by inflammasome activation, the transcription factor is directed to the proteasome under these conditions, since Nrf2 degradation was inhibited by the proteasome inhibitor MG132 (FIG. 4I and FIG. 7D).\nFIG. 7: (A-C) HPKs were transfected with siRNAs for 3 d as indicated. Scrambled (scr) siRNA and siRNA targeting the unrelated vascular endothelial growth factor (VEGF) served as controls. Western blots of (A) total lysates or (B) nuclear and cytoplasmic lysates and (C) qRT-PCR for expression of target gene expression. (D) HPKs were treated with MG132 (1 μM), PDTC (500 μM) or BAPTA-AM (12.5 μM) for 10 min and harvested (before UV) or irradiated with UVB and harvested after 1 h. Western blots showing expression of Nrf2. (E) Differentiated and primed THP-1 cells were pretreated with cycloheximide (CHX, 30 μg/ml) for 1 h before priming cells with upLPS overnight. Western blots show expression of the indicated proteins. […] Statistics: (C) Mann-Whitney test, related to scr control. *P≤0.05"}}, "note": "Peptide text beside a SMILES is read from it. * marks the point of attachment. Cbz = O=C(OCc1ccccc1)*"}
{"smiles": "CC(C)C[C@@H](C=O)NC(=O)[C@H](CC(C)C)NC(=O)[C@H](CC(C)C)NC(=O)OCc1ccccc1", "note": "[MG132] (Cbz-Leu-Leu-Leu-aldehyde)", "values": [{"measurement": "inflammasome activation-induced Nrf2 degradation", "setting": "[1]", "value": "inhibited"}, {"measurement": "inflammasome activation-induced Nrf2 degradation", "setting": "[2]", "value": "inhibited"}]}
